From ChEMBL document CHEMBL1147764, “Leptostatin: a synthetic hybrid of the cytotoxic polyketides callystatin A and leptomycin B” (Bioorg Med Chem Lett, 2006)

Test system: HCT-116
Test: Cytotoxicity against HCT116 human colon cancer cell line
Format: functional, cell-based

Row | Structure (SMILES) | IC50 [nM]
1 | CCC(=C/[C@H](C)C/C=C/C(C)=C/[C@@H](C)C(=O)[C@@H](C)[C@H](O)[C@@H](C)CC)/C=C/[C@@H]1OC(=O)C=C[C@H]1C | 30
2 | CCC(=C/[C@H](C)C/C=C/C(C)=C/[C@@H](C)C(=O)[C@@H](C)[C@H](O)[C@@H](C)CC)/C=C/[C@H]1OC(=O)C=C[C@H]1C | 0.2
3 | CCC(=C/[C@H](C)C/C=C/C(C)=C/[C@@H](C)C(=O)[C@@H](C)[C@H](O)[C@@H](C)CC)/C=C/[C@H]1CC=CC(=O)O1 [CALLYSTATIN A] | 0.03
4 | CCC(=C/[C@H](C)C/C=C/C(C)=C/[C@@H](C)C(=O)[C@@H](C)[C@H](O)[C@@H](C)CC)/C=C/[C@H]1OC(=O)C=C[C@@H]1C | 2
5 | CCC(=C/[C@H](C)C/C=C/C(C)=C/[C@@H](C)C(=O)[C@@H](C)[C@H](O)[C@@H](C)CC)/C=C/[C@@H]1OC(=O)C=C[C@@H]1C | 3
